# Test results taken from patent US12077503B2, “Substituted cyclic amides and their use as herbicides” (FMC CORPORATION, priority 2015, dated 2024).
# Legend:
# Type in all cases: in vivo
# [1] = tested on: barnyardgrass (Echinochloa crus-galli); assay: Test G Pre-Emergence Protocol; conditions: Echinochloa crus-galli, pre-emergence, 312 h, evaluated after 13 days; for pest or weed control at 15.625 g/ha: 15.625 g ai/ha, read-out: Barnyard grass damage rating (100=total damage to plant; 0=no damage to plant); for pest or weed control at 62.5 g/ha: 62.5 g ai/ha, 100=total damage to plant, 0=no damage to plant, read-out: plant damage rating, Barnyardgrass; for pest or weed control at 250 g/ha: 250 g ai/ha, read-out: Barnyardgrass damage rating (100=total damage to plant; 0=no damage to plant)
# Summary of the method: (§1)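 Test compound in 0.5% Tween 20 acetone/water (50:50) was applied at three rates (15.625, 62.5, 250 g/ha) to soil sown one day earlier. After 13 days plants were scored for injury, where 0 means unaffected and 100 means completely damaged.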
# [2] = tested on: giant foxtail (Setaria faberi); assay: Test G Pre-Emergence Protocol; conditions: Setaria faberi, pre-emergence, 312 h, evaluated after 13 days; for pest or weed control at 15.625 g/ha: 15.625 g ai/ha; for pest or weed control at 15.625 g/ha / pest or weed control at 250 g/ha: read-out: Foxtail, Giant damage rating (100=total damage to plant; 0=no damage to plant); for pest or weed control at 62.5 g/ha: 62.5 g ai/ha, 100=total damage to plant, 0=no damage to plant, read-out: plant damage rating, Foxtail, Giant; for pest or weed control at 250 g/ha: 250 g ai/ha
# Summary of the method: as §1
# [3] = tested on: corn (Zea mays); assay: Test G Pre-Emergence Protocol; conditions: Zea mays, pre-emergence, 312 h, evaluated after 13 days; for plant injury at 15.625 g/ha: 15.625 g ai/ha; for plant injury at 15.625 g/ha / plant injury at 250 g/ha: read-out: Corn damage rating (100=total damage to plant; 0=no damage to plant); for plant injury at 62.5 g/ha: 62.5 g ai/ha, 100=total damage to plant, 0=no damage to plant, read-out: plant damage rating, Corn; for plant injury at 250 g/ha: 250 g ai/ha
# Summary of the method: as §1
# [4] = tested on: ivy-leaved morning glory (Ipomoea hederacea); assay: Test G Pre-Emergence Protocol; conditions: Ipomoea, pre-emergence, 312 h, evaluated after 13 days; for pest or weed control at 15.625 g/ha: 15.625 g ai/ha, read-out: Morning-glory, Ivy-leaved damage rating (100=total damage to plant; 0=no damage to plant); for pest or weed control at 62.5 g/ha: 62.5 g ai/ha, 100=total damage to plant, 0=no damage to plant, read-out: plant damage rating, Morningglory, Ivy-leaved; for pest or weed control at 250 g/ha: 250 g ai/ha, read-out: Morningglory, Ivy-leaved damage rating (100=total damage to plant; 0=no damage to plant)
# Summary of the method: as §1
# [5] = tested on: redroot pigweed (Amaranthus retroflexus); assay: Test G Pre-Emergence Protocol; conditions: Amaranthus retroflexus, pre-emergence, 312 h, evaluated after 13 days; for pest or weed control at 15.625 g/ha: 15.625 g ai/ha; for pest or weed control at 15.625 g/ha / pest or weed control at 250 g/ha: read-out: Pigweed, Redroot damage rating (100=total damage to plant; 0=no damage to plant); for pest or weed control at 62.5 g/ha: 62.5 g ai/ha, 100=total damage to plant, 0=no damage to plant, read-out: plant damage rating, Pigweed, Redroot; for pest or weed control at 250 g/ha: 250 g ai/ha
# Summary of the method: as §1
# [6] = tested on: velvetleaf (Abutilon theophrasti); assay: Test G Pre-Emergence Protocol; conditions: Abutilon theophrasti, pre-emergence, 312 h, evaluated after 13 days; for pest or weed control at 15.625 g/ha: 15.625 g ai/ha; for pest or weed control at 15.625 g/ha / pest or weed control at 250 g/ha: read-out: Velvetleaf damage rating (100=total damage to plant; 0=no damage to plant); for pest or weed control at 62.5 g/ha: 62.5 g ai/ha, 100=total damage to plant, 0=no damage to plant, read-out: plant damage rating, Velvetleaf; for pest or weed control at 250 g/ha: 250 g ai/ha
# Summary of the method: as §1
# [7] = tested on: barnyardgrass (Echinochloa crus-galli); assay: Test G Post-Emergence Protocol; conditions: Echinochloa crus-galli, post-emergence, 312 h; for pest or weed control at 15.625 g/ha: 15.625 g ai/ha, evaluated after 13 days (100=total damage to plant; 0=no damage to plant), read-out: Barnyardgrass damage rating; for pest or weed control at 62.5 g/ha: 62.5 g ai/ha, read-out: Barnyardgrass damage rating (100=total damage to plant; 0=no damage to plant); for pest or weed control at 62.5 g/ha / pest or weed control at 250 g/ha: evaluated after 13 days; for pest or weed control at 250 g/ha: 250 g ai/ha, read-out: damage to plant, Barnyardgrass (100=total damage to plant; 0=no damage to plant)
# Summary of the method: (§2)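 Scores run 0 (no damage) to 100 (total damage) and were taken 13 days after spraying. Plants had been raised in pots for 8 days under glasshouse control (24/16 °C, 14 h photoperiod, 65% humidity) and then treated at 15.625, 62.5 or 250 g/ha.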
# [8] = tested on: giant foxtail (Setaria faberi); assay: Test G Post-Emergence Protocol; conditions: Setaria faberi, post-emergence, 312 h; for pest or weed control at 15.625 g/ha: 15.625 g ai/ha, evaluated after 13 days (100=total damage to plant; 0=no damage to plant), read-out: Foxtail, Giant damage rating; for pest or weed control at 62.5 g/ha: 62.5 g ai/ha, read-out: Foxtail, Giant damage rating (100=total damage to plant; 0=no damage to plant); for pest or weed control at 62.5 g/ha / pest or weed control at 250 g/ha: evaluated after 13 days; for pest or weed control at 250 g/ha: 250 g ai/ha, read-out: damage to plant, Foxtail, Giant (100=total damage to plant; 0=no damage to plant)
# Summary of the method: as §2
# [9] = tested on: corn (Zea mays); assay: Test G Post-Emergence Protocol; conditions: Zea mays, post-emergence, 312 h; for plant injury at 15.625 g/ha: 15.625 g ai/ha, evaluated after 13 days (100=total damage to plant; 0=no damage to plant), read-out: Corn damage rating; for plant injury at 62.5 g/ha: 62.5 g ai/ha, read-out: Corn damage rating (100=total damage to plant; 0=no damage to plant); for plant injury at 62.5 g/ha / plant injury at 250 g/ha: evaluated after 13 days; for plant injury at 250 g/ha: 250 g ai/ha, read-out: damage to plant, Corn (100=total damage to plant; 0=no damage to plant)
# Summary of the method: as §2
# [10] = tested on: ivy-leaved morning glory (Ipomoea hederacea); assay: Test G Post-Emergence Protocol; conditions: Ipomoea, post-emergence, 312 h; for pest or weed control at 15.625 g/ha: 15.625 g ai/ha, evaluated after 13 days (100=total damage to plant; 0=no damage to plant), read-out: Morningglory, Ivy-leaved damage rating; for pest or weed control at 62.5 g/ha: 62.5 g ai/ha, read-out: Morningglory, Ivy-leaved damage rating (100=total damage to plant; 0=no damage to plant); for pest or weed control at 62.5 g/ha / pest or weed control at 250 g/ha: evaluated after 13 days; for pest or weed control at 250 g/ha: 250 g ai/ha, read-out: damage to plant, Morningglory, Ivy-leaved (100=total damage to plant; 0=no damage to plant)
# Summary of the method: as §2
# [11] = tested on: redroot pigweed (Amaranthus retroflexus); assay: Test G Post-Emergence Protocol; conditions: Amaranthus retroflexus, post-emergence, 312 h; for pest or weed control at 15.625 g/ha: 15.625 g ai/ha, evaluated after 13 days (100=total damage to plant; 0=no damage to plant), read-out: Pigweed, Redroot damage rating; for pest or weed control at 62.5 g/ha: 62.5 g ai/ha, read-out: Pigweed, Redroot damage rating (100=total damage to plant; 0=no damage to plant); for pest or weed control at 62.5 g/ha / pest or weed control at 250 g/ha: evaluated after 13 days; for pest or weed control at 250 g/ha: 250 g ai/ha, read-out: damage to plant, Pigweed, Redroot (100=total damage to plant; 0=no damage to plant)
# Summary of the method: as §2
# [12] = tested on: velvetleaf (Abutilon theophrasti); assay: Test G Post-Emergence Protocol; conditions: Abutilon theophrasti, post-emergence, 312 h; for pest or weed control at 15.625 g/ha: 15.625 g ai/ha, evaluated after 13 days (100=total damage to plant; 0=no damage to plant), read-out: Velvetleaf damage rating; for pest or weed control at 62.5 g/ha: 62.5 g ai/ha, read-out: Velvetleaf damage rating (100=total damage to plant; 0=no damage to plant); for pest or weed control at 62.5 g/ha / pest or weed control at 250 g/ha: evaluated after 13 days; for pest or weed control at 250 g/ha: 250 g ai/ha, read-out: damage to plant, Velvetleaf (100=total damage to plant; 0=no damage to plant)
# Summary of the method: as §2
Structure (SMILES),pest or weed control at 15.625 g/ha [1] [%],pest or weed control at 62.5 g/ha [1] [%],pest or weed control at 250 g/ha [1] [%],pest or weed control at 15.625 g/ha [2] [%],pest or weed control at 62.5 g/ha [2] [%],pest or weed control at 250 g/ha [2] [%],plant injury at 15.625 g/ha [3] [%],plant injury at 62.5 g/ha [3] [%],plant injury at 250 g/ha [3] [%],pest or weed control at 15.625 g/ha [4] [%],pest or weed control at 62.5 g/ha [4] [%],pest or weed control at 250 g/ha [4] [%],pest or weed control at 15.625 g/ha [5] [%],pest or weed control at 62.5 g/ha [5] [%],pest or weed control at 250 g/ha [5] [%],pest or weed control at 15.625 g/ha [6] [%],pest or weed control at 62.5 g/ha [6] [%],pest or weed control at 250 g/ha [6] [%],pest or weed control at 15.625 g/ha [7] [%],pest or weed control at 62.5 g/ha [7] [%],also measured
CN1C[C@@H](c2ccc(C(F)(F)F)cc2)[C@H](C(=O)Nc2ccnc(Cl)n2)C1=O (racemic) [Compound 1544],0,0,0,0,0,0,0,0,0,0,0,0,0,0,0,0,0,0,0,0,pest or weed control at 250 g/ha [7]: 0%; pest or weed control at 15.625 g/ha [8]: 0%; pest or weed control at 62.5 g/ha [8]: 0%; pest or weed control at 250 g/ha [8]: 0%; plant injury at 15.625 g/ha [9]: 10%; plant injury at 62.5 g/ha [9]: 10%; plant injury at 250 g/ha [9]: 10%; pest or weed control at 15.625 g/ha [10]: 0%; pest or weed control at 62.5 g/ha [10]: 0%; pest or weed control at 250 g/ha [10]: 0%; pest or weed control at 15.625 g/ha [11]: 0%; pest or weed control at 62.5 g/ha [11]: 0%; pest or weed control at 250 g/ha [11]: 0%; pest or weed control at 15.625 g/ha [12]: 0%; pest or weed control at 62.5 g/ha [12]: 0%; pest or weed control at 250 g/ha [12]: 0%
CN1C[C@@H](c2ccc(C(F)(F)F)cc2)[C@H](C(=O)Nc2nnc(C(F)(F)F)s2)C1=O (racemic) [Compound 1548],0,0,0,0,0,0,0,0,0,0,0,0,0,0,0,0,0,0,0,0,pest or weed control at 250 g/ha [7]: 0%; pest or weed control at 15.625 g/ha [8]: 0%; pest or weed control at 62.5 g/ha [8]: 0%; pest or weed control at 250 g/ha [8]: 0%; plant injury at 15.625 g/ha [9]: 0%; plant injury at 62.5 g/ha [9]: 0%; plant injury at 250 g/ha [9]: 0%; pest or weed control at 15.625 g/ha [10]: 0%; pest or weed control at 62.5 g/ha [10]: 0%; pest or weed control at 250 g/ha [10]: 0%; pest or weed control at 15.625 g/ha [11]: 0%; pest or weed control at 62.5 g/ha [11]: 0%; pest or weed control at 250 g/ha [11]: 0%; pest or weed control at 15.625 g/ha [12]: 0%; pest or weed control at 62.5 g/ha [12]: 0%; pest or weed control at 250 g/ha [12]: 0%
Cc1nnc(NC(=O)[C@@H]2C(=O)N(C)C[C@H]2c2ccc(C(F)(F)F)cc2)nc1C (racemic) [Compound 1549],0,0,0,0,0,0,0,0,0,0,0,0,0,0,0,0,0,0,0,0,pest or weed control at 250 g/ha [7]: 0%; pest or weed control at 15.625 g/ha [8]: 0%; pest or weed control at 62.5 g/ha [8]: 0%; pest or weed control at 250 g/ha [8]: 0%; plant injury at 15.625 g/ha [9]: 0%; plant injury at 62.5 g/ha [9]: 0%; plant injury at 250 g/ha [9]: 0%; pest or weed control at 15.625 g/ha [10]: 0%; pest or weed control at 62.5 g/ha [10]: 0%; pest or weed control at 250 g/ha [10]: 0%; pest or weed control at 15.625 g/ha [11]: 0%; pest or weed control at 62.5 g/ha [11]: 0%; pest or weed control at 250 g/ha [11]: 0%; pest or weed control at 15.625 g/ha [12]: 0%; pest or weed control at 62.5 g/ha [12]: 0%; pest or weed control at 250 g/ha [12]: 0%
